The values below come from patent US8898047B2, “Methods for identifying inhibitors against viruses that use a class I fusion protein” (Janssen Pharmaceuticals NV, priority 2008, dated 2014).

The test system of assay [1] is RSV. Put plainly: RSV antiviral cellular assay. Type of assay: cell-based, hRSV. The note with it: for EC50: human respiratory syncytial virus, pEC50 = -log10 EC50 (M), RSV antiviral cellular assay, read-out: In vitro activity (pEC50) (converted); for log reduction in activity on structural modification: reduction of antiviral activity versus parent compound of the Compound Z series.

Assay [2] deals with IQN57 (HR1 hydrophobic pocket) (Human respiratory syncytial virus A, UniProt P03420). The note with it: 30 μM compound, 20° C., HR1 alone.
Description: 20 μM biotinylated-IQN57 was immobilized on a Streptavidin-certified sensor chip (GE Healthcare, Diegem, Belgium) surface in PBS at a flow rate of 10 μl/min and a contact time of 7 min. A reference flow cell was used as a control for nonspecific binding and refractive index changes. […] Several PBS+5% dimethylsulfoxide (DMSO; Sigma Aldrich NV, Bornem, Belgium) buffer blanks were injected over the course of an experiment for double referencing. The flow system was washed between sample injections with running buffer containing 50% DMSO, and the immobilized surface was regenerated with one injection of 0.2% sodiumdodecylsulfate for 30 sec. SPR biosensor data were collected on a BIAcore S51. All experiments were conducted at 20° C.
Assay [3] addresses biotin-labeled IQN57 / FITC-labeled C45 (HR1-CTC and HR2) (Human respiratory syncytial virus A, UniProt P03420). Particulars: 6HB-formation ELISA, FIG. 3E.
Description: White streptavidin-coated 96-well plates (NoAb Biodiscoveries, Mississauga, Canada) were blocked with PBS+5% BSA for 1 h and then washed three times with PBS. 10 nM biotin-labeled IQN57 dissolved in PBS+1% BSA was non-covalently bound to the surfaces of the 96-well plate for 30 min and then wells were washed again 3 times with PBS. […] Subsequently, POD-conjugated anti-FITC Fab fragment (1:5000) (Roche Applied Science, Vilvoorde, Belgium) in PBS+1% BSA was administered to the wells and incubated for 30 min. Finally, wells were washed again three times with PBS, Supersignal West Femto chemiluminescent substrate from Pierce (Perbio Science, Erembodegem, Belgium) added and signals were analyzed on a ViewLux UltraHTS microplate reader (Perkin Elmer, Zaventem, Belgium). Assay conditions without addition of biotin-labeled IQN57, FITC-labeled C45, POD-conjugated anti-FITC Fab fragment, or chemiluminescent substrate were included as negative controls or control of background signal in each of the experiments. In addition, assay conditions with saquinavir, Fuzeon® (T20), or the HIV-1-derived HR1 peptide (biotin-labeled IQN36) were used as specificity controls in each experiment.
Assay [4] relates to HR1-derived peptide. The note with it: prior art (Cianci et al.); cited from earlier work.
The target in assay [5] is T1, HR1 (IQN57) and HR2 (C45) heptad-repeat peptides (Human respiratory syncytial virus A, UniProt P03420).
T1 construct: IQ trimerisation segment (GCN4-pIQI-type coiled coil)
The class given is binding, hRSV. Particulars: competition assay, FIG. 3C.

Sequence of IQN57 (HR1 hydrophobic pocket) (P03420 153-209): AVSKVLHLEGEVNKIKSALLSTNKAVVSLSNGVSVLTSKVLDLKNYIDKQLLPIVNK
Sequence of biotin-labeled IQN57 / FITC-labeled C45 (HR1-CTC and HR2) (P03420 476-520): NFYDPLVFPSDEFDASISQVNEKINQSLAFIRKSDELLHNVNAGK
Sequence of biotin-labeled IQN57 / FITC-labeled C45 (HR1-CTC and HR2) (P03420 153-209): as the sequence (P03420 153-209) above
T1 sequence (P03420 153-209): as above
T1 sequence (P03420 476-520): as the sequence (P03420 476-520) above

As to `Cc1cccc(NCc2ccc3nc(NCCCN4CCOCC4)n(Cc4nc(C)ccc4O)c3c2)c1` [Compound 2], in assay [1], the EC50 was 2.51e-09 M and the “log reduction in activity on structural modification” value (shortened to “log reduction in activity”) is given as 1.3 log.

Consider `Cc1ccc(O)c(Cn2c(NCCCN3CCOCC3)nc3ccccc32)n1` [Compound 3], for which the “further log decrease in potency” value in assay [1] (further truncation of the methylamino-toluene moiety, relative to compound 2) is given as 0.8 log. Further, the EC50 in assay [1] is 1.58e-07 M.

With `COc1ccc(C)nc1Cn1c(NCCCN2CCOCC2)nc2ccc(CNc3cc(C)ccc3CCCO)cc21` [Compound 6], in assay [1], the EC50 is 2.51e-09 M and the “log reduction in activity” value came to 1.3 log.

In the case of `Cc1ccc(CCCO)c(NCc2ccc3nc(N)n(Cc4nc(C)ccc4O)c3c2)c1` [Compound 4], the EC50 in assay [1] was 3.16e-11 M. For the same compound, in assay [1] (removal of the morpholinopropyl group), the “log improvement in activity” value came out at 0.6 log.

As for `Cc1ccc(CCCO)c(NCc2ccc3ncn(Cc4nc(C)ccc4O)c3c2)c1` [Compound 5], in assay [1], the EC50 was 1.26e-08 M and the “log reduction in activity” value was found to be 2.6 log.

For `O=c1n(Cc2nc3ccccc3n2CCCCO)c2cnccc2n1C1CC1` [BMS433771, reference compound], the “Binding to HR1 (IQN57) by SPR” value in assay [2] is “do not bind to the HR1 hydrophobic pocket alone”. Further, the “Effect on interaction of HR2 (C45) with HR1-CTC (IQN57)” value in assay [3] is given as “facilitate the interaction of HR2 with the HR1-CTC”. Further, the “Binding to an HR1-derived peptide alone” value in assay [4] is on record as “relatively weak”.

As for `Cc1ccc(CCCO)c(NCc2ccc3nc(NCCCN4CCOCC4)n(Cc4nc(C)ccc4O)c3c2)c1` [Compound 1, 2-[6-{[2-(3-hydroxy-propyl)-5-methyl-phenylamino]-methyl}-2-(3-morpholin-4-yl-propylamino)-benzoimidazol-1-ylmethyl]-6-methyl-pyridin-3-ol], the “Competition with compound X for binding” value in assay [5] is “competed for the same binding pocket”. Also, in assay [2], the “Binding to HR1 (IQN57) by SPR” value is on record as “do not bind to the HR1 hydrophobic pocket alone”. The “Effect on interaction of HR2 (C45) with HR1-CTC (IQN57)” value in assay [3] was “facilitate the interaction of HR2 with the HR1-CTC”.
